The results in this text go back to publication PMC9112550, “Optimization of the antimicrobial peptide Bac7 by deep mutational scanning” (BMC Biology, 2022).

The subject of experiment [1] is E. coli TOP10. The experiment is described as follows: Membrane damage assay in MHB II (GFP loss, PI uptake). The class given is cell-based. Particulars: at its MIC.
The subject of experiment [2] is E. coli TOP10. The class given is cell-based. To be noted: data not shown. As to the method: Bacterial cells were grown in cation-adjusted Mueller Hinton Broth (MHB II) overnight to stationary phase. The cultures were then supplemented with 200 g l^−1 glycerol, aliquoted, and frozen at −80°C. […] The purified peptides were thawed and the concentration was determined by RP-HPLC as described before. The peptides were diluted with sterile water to 4-fold the desired assays starting concentration and to a final volume of 50 μl. […] The first well of each MIC dilution series was filled with 20 μl of 2-fold concentrated MHB II, wells 2–11 with 20 μl of MHB II, and well 12 with 40 μl MHB II (sterility control). Next, 20 μl of the peptide dilution was added to the first well, mixed, and a log2-serial dilution was performed from wells 1 to 10 (20 μl transfer volume). Well 11 served as growth control (i.e., no peptide added). In the last step, 20 μl of the bacterial cell suspension was added to wells 1–11 either using the pipetting robot (E. coli TOP10, BW25113, BW25113 ΔsbmA, and ATCC 25922) or by manual pipetting (E. coli clinical isolates). The plates were sealed airtight and incubated for 18 h without shaking at 37°C before reading the OD using an Infinite 200 PRO plate reader (Tecan, Männedorf, CH). […] All MIC experiments were determined in technical replicate.

The structures appear in SMILES notation. ≈ marks a conversion by molar mass, not a printed value.

Usually MIC stands for the lowest concentration that inhibits growth of the organism. A low value points to inhibition by little substance. With `CC[C@H](C)[C@H](NC(=O)CN)C(=O)NCC(=O)N[C@@H](C)C(=O)N[C@H](C(=O)N[C@@H](CC(C)C)C(=O)N[C@@H](CCCCN)C(=O)N[C@H](C(=O)N[C@@H](CC(C)C)C(=O)N[C@H](C(=O)N[C@H](C(=O)NCC(=O)N[C@@H](CC(C)C)C(=O)N1CCC[C@H]1C(=O)N[C@@H](C)C(=O)N[C@@H](CC(C)C)C(=O)N[C@H](C(=O)N[C@@H](CO)C(=O)N[C@@H](Cc1c[nH]c2ccccc12)C(=O)N[C@H](C(=O)N[C@@H](CCCCN)C(=O)N[C@@H](CCCNC(=N)N)C(=O)N[C@@H](CCCCN)C(=O)N[C@@H](CCCNC(=N)N)C(=O)N[C@@H](CCC(N)=O)C(=O)N[C@@H](CCC(N)=O)C(N)=O)[C@@H](C)CC)[C@@H](C)CC)[C@@H](C)O)[C@@H](C)O)C(C)C)C(C)C` [melittin], the “PI uptake and loss of GFP” value with E. coli TOP10 [1] was “rapidly induced PI uptake and loss of GFP”. The same compound returned an MIC against E. coli TOP10 [2] of 5.0 µM (≈ 14.2 µg/mL).
